Laboratory results taken from patent US12479804B2, “Herbicidal compounds” (SYNGENTA CROP PROTECTION AG, priority 2019, dated 2025).

What was measured:
Test in all cases: Glasshouse herbicidal test, pre- and post-emergence, percentage damage to the plant
Type in all cases: in vivo
[1] = system: Alopecurus myosuroides (ALOMY); conditions: 250 g/h, evaluated after 13 days; for ALOMY POST percentage damage caused to the plant (five-point scale): post-emergence; for ALOMY PRE percentage damage caused to the plant (five-point scale): pre-emergence
Procedure: (§1) Seeds of a variety of test species are sown in standard soil in pots (Lolium perenne (LOLPE), Setaria faberi (SETFA), Alopecurus myosuroides (ALOMY), Echinochloa crus-galli (ECHCG), Avena fatua (AVEFA)). After cultivation for one day (pre-emergence) or after 8 days cultivation (post-emergence) under controlled conditions in a glasshouse (at 24/16° C., day/night; 14 hours light; 65% humidity), the plants are sprayed with an aqueous spray solution derived from the formulation of the technical active ingredient in acetone/water (50:50) solution containing 0.5% Tween 20 (polyoxyethelyene sorbitan monolaurate, CAS RN 9005-64-5). Compounds are applied at 250 g/h. The test plants are then grown in a glasshouse under controlled conditions in a glasshouse (at 24/16° C., day/night; 14 hours light; 65% humidity) and watered twice daily. After 13 days for pre and post-emergence, the test is evaluated for the percentage damage caused to the plant. The biological activities are shown in the following table on a five-point scale (5=80-100%; 4=60-79%; 3=40-59%; 2=20-39%; 1=0-19%).

Avena fatua (AVEFA) = conditions: 250 g/h, evaluated after 13 days; for AVEFA POST percentage damage caused to the plant (five-point scale): post-emergence; for AVEFA PRE percentage damage caused to the plant (five-point scale): pre-emergence
Procedure: as §1

[2] = system: Echinochloa crus-galli (ECHCG); conditions: 250 g/h, evaluated after 13 days; for ECHCG POST percentage damage caused to the plant (five-point scale): post-emergence; for ECHCG PRE percentage damage caused to the plant (five-point scale): pre-emergence
Procedure: as §1

Lolium perenne (LOLPE) = conditions: 250 g/h, evaluated after 13 days; for LOLPE POST percentage damage caused to the plant (five-point scale): post-emergence; for LOLPE PRE percentage damage caused to the plant (five-point scale): pre-emergence
Procedure: as §1

Setaria faberi (SETFA) = conditions: 250 g/h, evaluated after 13 days; for SETFA POST percentage damage caused to the plant (five-point scale): post-emergence; for SETFA PRE percentage damage caused to the plant (five-point scale): pre-emergence
Procedure: as §1

CC#Cc1cc(C)c(C2C(=O)CC3(CCN(C(C)=O)C3)CC2=O)c(C)c1 (centres unmarked) [Compound A4]
5 (5=80-100%): ALOMY POST percentage damage caused to the plant (five-point scale) [1] | ALOMY PRE percentage damage caused to the plant (five-point scale) [1] | AVEFA POST percentage damage caused to the plant (five-point scale) (Avena fatua (AVEFA)) | AVEFA PRE percentage damage caused to the plant (five-point scale) (Avena fatua (AVEFA)) | ECHCG POST percentage damage caused to the plant (five-point scale) [2] | ECHCG PRE percentage damage caused to the plant (five-point scale) [2] | LOLPE POST percentage damage caused to the plant (five-point scale) (Lolium perenne (LOLPE)) | LOLPE PRE percentage damage caused to the plant (five-point scale) (Lolium perenne (LOLPE)) | SETFA POST percentage damage caused to the plant (five-point scale) (Setaria faberi (SETFA)) | SETFA PRE percentage damage caused to the plant (five-point scale) (Setaria faberi (SETFA))

CC#Cc1cc(C)c(C2C(=O)CC3(CCN(C(C)=O)CC3C)CC2=O)c(C)c1 (centres unmarked) [Compound A59]
5 (5=80-100%): ALOMY POST percentage damage caused to the plant (five-point scale) [1] | ALOMY PRE percentage damage caused to the plant (five-point scale) [1] | AVEFA POST percentage damage caused to the plant (five-point scale) (Avena fatua (AVEFA)) | AVEFA PRE percentage damage caused to the plant (five-point scale) (Avena fatua (AVEFA)) | ECHCG POST percentage damage caused to the plant (five-point scale) [2] | ECHCG PRE percentage damage caused to the plant (five-point scale) [2] | LOLPE POST percentage damage caused to the plant (five-point scale) (Lolium perenne (LOLPE)) | LOLPE PRE percentage damage caused to the plant (five-point scale) (Lolium perenne (LOLPE)) | SETFA POST percentage damage caused to the plant (five-point scale) (Setaria faberi (SETFA)) | SETFA PRE percentage damage caused to the plant (five-point scale) (Setaria faberi (SETFA))

CC#Cc1cc(C)c(C2C(=O)CC3(CCN(S(=O)(=O)CC)C3)CC2=O)c(C)c1 (centres unmarked) [Compound A7]
5 (5=80-100%): ALOMY POST percentage damage caused to the plant (five-point scale) [1] | ALOMY PRE percentage damage caused to the plant (five-point scale) [1] | AVEFA POST percentage damage caused to the plant (five-point scale) (Avena fatua (AVEFA)) | AVEFA PRE percentage damage caused to the plant (five-point scale) (Avena fatua (AVEFA)) | ECHCG POST percentage damage caused to the plant (five-point scale) [2] | ECHCG PRE percentage damage caused to the plant (five-point scale) [2] | LOLPE POST percentage damage caused to the plant (five-point scale) (Lolium perenne (LOLPE)) | LOLPE PRE percentage damage caused to the plant (five-point scale) (Lolium perenne (LOLPE)) | SETFA POST percentage damage caused to the plant (five-point scale) (Setaria faberi (SETFA)) | SETFA PRE percentage damage caused to the plant (five-point scale) (Setaria faberi (SETFA))

CC#Cc1cc(C)c(C2C(=O)CC3(CCC(=O)NC3)CC2=O)c(C)c1 (centres unmarked) [Compound A10]
5 (5=80-100%): ALOMY POST percentage damage caused to the plant (five-point scale) [1] | ALOMY PRE percentage damage caused to the plant (five-point scale) [1] | AVEFA POST percentage damage caused to the plant (five-point scale) (Avena fatua (AVEFA)) | AVEFA PRE percentage damage caused to the plant (five-point scale) (Avena fatua (AVEFA)) | ECHCG POST percentage damage caused to the plant (five-point scale) [2] | ECHCG PRE percentage damage caused to the plant (five-point scale) [2] | LOLPE POST percentage damage caused to the plant (five-point scale) (Lolium perenne (LOLPE)) | LOLPE PRE percentage damage caused to the plant (five-point scale) (Lolium perenne (LOLPE)) | SETFA POST percentage damage caused to the plant (five-point scale) (Setaria faberi (SETFA)) | SETFA PRE percentage damage caused to the plant (five-point scale) (Setaria faberi (SETFA))

CC#Cc1cc(C)c(C2C(=O)CC3(C=CN(C(=O)CC#N)CC3)CC2=O)c(C)c1 (centres unmarked) [Compound A51]
5 (5=80-100%): ALOMY POST percentage damage caused to the plant (five-point scale) [1] | ALOMY PRE percentage damage caused to the plant (five-point scale) [1] | AVEFA POST percentage damage caused to the plant (five-point scale) (Avena fatua (AVEFA)) | AVEFA PRE percentage damage caused to the plant (five-point scale) (Avena fatua (AVEFA)) | ECHCG POST percentage damage caused to the plant (five-point scale) [2] | ECHCG PRE percentage damage caused to the plant (five-point scale) [2] | LOLPE POST percentage damage caused to the plant (five-point scale) (Lolium perenne (LOLPE)) | LOLPE PRE percentage damage caused to the plant (five-point scale) (Lolium perenne (LOLPE)) | SETFA POST percentage damage caused to the plant (five-point scale) (Setaria faberi (SETFA)) | SETFA PRE percentage damage caused to the plant (five-point scale) (Setaria faberi (SETFA))
